Activity calls are given as the source filed them. The rule behind the calls is not given here.
Experiments:
Mus musculus [1] = test: Inhibition of carrageenan-induced paw edema in Swiss mouse at 0.5 mg/kg, sc pretreated for 1 hr followed by carrageenan-stimulation and measured after 6 hrs relative to control; format: functional
Mus musculus [2] = test: Inhibition of carrageenan-induced thermal allodynia in Swiss mouse at 0.5 mg/kg, sc pretreated for 1 hr followed by carrageenan-stimulation and measured after 6 hrs relative to control; format: functional
Mus musculus [3] = test: Inhibition of zymosan-induced TLR2/Dectin-1 Signaling Pathway assessed as reduction in paw edema in Swiss mouse at 0.5 mg/kg, sc pretreated for 1 hr followed by […] and measured after 48 hrs relative to control; format: functional
Mus musculus [4] = test: Inhibition of carrageenan-induced paw edema in Swiss mouse at 1.5 mg/kg, ip pretreated for 30 mins followed by carrageenan-stimulation and measured after 6 hrs; format: functional, organism-based
[5] = Psychoactive effect in Swiss mouse assessed as reduction in locomotor activity by measuring change in distance travelled at 1.5 mg/kg, ip and measured for 6 hrs; format: ADME, organism-based; details: in vivo
[6] = Psychoactive effect in Swiss mouse assessed as antinociceptive effect by measuring paw withdrawal latencies at 1.5 mg/kg, ip and measured for 6 hrs; format: ADME, organism-based; details: in vivo
[7] = Psychoactive effect in Swiss mouse assessed as catalepsy effect at 1.5 mg/kg, ip and measured for 6 hrs; format: ADME, organism-based; details: in vivo
[8] = Psychoactive effect in Swiss mouse assessed as hypothermic effects at 1.5 mg/kg, ip and measured for 6 hrs by thermometric method; format: ADME, organism-based; details: in vivo

Row | Structure (SMILES) | inhibition in vivo at 0.5 mg/kg (Mus musculus [1]) | inhibition in vivo at 0.5 mg/kg (Mus musculus [2]) | inhibition in vivo at 0.5 mg/kg (Mus musculus [3]) | inhibition (Mus musculus [4]) | Activity [5] | Activity [6] | Activity [7] | Activity [8]
1 | C[C@@H]1C[C@H]2[C@@H]3CCC4=CC(=O)C=C[C@]4(C)[C@@]3(F)[C@@H](O)C[C@]2(C)[C@@]1(O)C(=O)CO [DEXAMETHASONE] | 82% | 72% | 45% | – | – | – | – | –
2 | Cc1c(C(=O)c2cccc3ccccc23)c2cccc3c2n1[C@H](CN1CCOCC1)CO3 [WIN-552122] | – | – | – | Active | Toxic | Toxic | Toxic | Toxic

Source: ChEMBL document CHEMBL4616633, “Citral Inhibits the Inflammatory Response and Hyperalgesia in Mice: The Role of TLR4, TLR2/Dectin-1, and CB2 Cannabinoid Receptor/ATP-Sensitive K+ Channel Pathways” (J Nat Prod, 2020)
